Where “and” joins values, the source holds several entries; their conditions need not be identical. Equal entries are not always repeated. Where two headings read alike, the source gives them in different places.
Assays:
[1] = tested on: cyclin K–eGFP degradation reporter; assay: Cyclin K reporter stability analysis (dual-color cyclin K–eGFP reporter); type: cell-based, human
Outline: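 A 5 h treatment of HEK293T–Cas9 cells expressing the degradation reporter preceded flow cytometry; eGFP over mCherry, normalized to DMSO.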

CDK12–cyclin K and DDB1 = target: T1, CDK12–cyclin K and DDB1 (Homo sapiens, UniProt Q16531+Q9NYV4, K965R); assay: TR-FRET ternary complex formation assay (compound titration); type: binding; settings: for TR-FRET signal at compound concentration: replicate titrations
T1 construct: His6–CDK12 (a.a. 713–1,052); full-length or beta-propeller B domain deletion (ΔBPB: a.a. 396–705 deleted) constructs of His6–DDB1ΔBPB, StrepII–Avi–DDB1, or His6–Spy–DDB1; made in house; host or cells: Trichoplusia ni High Five insect cells (baculovirus)
T1 sequence (Q9NYV4 713-1052 K965R): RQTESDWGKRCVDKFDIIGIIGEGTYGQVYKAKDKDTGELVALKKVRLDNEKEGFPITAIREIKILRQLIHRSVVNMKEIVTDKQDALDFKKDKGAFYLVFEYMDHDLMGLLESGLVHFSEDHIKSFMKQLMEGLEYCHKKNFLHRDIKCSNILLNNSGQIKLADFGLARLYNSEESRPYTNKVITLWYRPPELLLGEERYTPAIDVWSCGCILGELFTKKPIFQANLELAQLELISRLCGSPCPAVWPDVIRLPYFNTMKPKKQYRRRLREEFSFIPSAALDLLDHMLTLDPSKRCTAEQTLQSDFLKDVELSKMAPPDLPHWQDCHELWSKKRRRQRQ
T1 sequence (O75909 1-267 partner): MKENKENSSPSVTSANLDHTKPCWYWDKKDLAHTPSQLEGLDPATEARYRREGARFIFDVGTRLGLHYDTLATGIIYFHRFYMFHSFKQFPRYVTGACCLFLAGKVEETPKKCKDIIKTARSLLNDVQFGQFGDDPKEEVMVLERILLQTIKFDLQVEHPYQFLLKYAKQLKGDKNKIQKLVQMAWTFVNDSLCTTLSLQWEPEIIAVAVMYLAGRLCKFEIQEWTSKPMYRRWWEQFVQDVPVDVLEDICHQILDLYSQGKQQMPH
T1 sequence (Q16531 whole entry): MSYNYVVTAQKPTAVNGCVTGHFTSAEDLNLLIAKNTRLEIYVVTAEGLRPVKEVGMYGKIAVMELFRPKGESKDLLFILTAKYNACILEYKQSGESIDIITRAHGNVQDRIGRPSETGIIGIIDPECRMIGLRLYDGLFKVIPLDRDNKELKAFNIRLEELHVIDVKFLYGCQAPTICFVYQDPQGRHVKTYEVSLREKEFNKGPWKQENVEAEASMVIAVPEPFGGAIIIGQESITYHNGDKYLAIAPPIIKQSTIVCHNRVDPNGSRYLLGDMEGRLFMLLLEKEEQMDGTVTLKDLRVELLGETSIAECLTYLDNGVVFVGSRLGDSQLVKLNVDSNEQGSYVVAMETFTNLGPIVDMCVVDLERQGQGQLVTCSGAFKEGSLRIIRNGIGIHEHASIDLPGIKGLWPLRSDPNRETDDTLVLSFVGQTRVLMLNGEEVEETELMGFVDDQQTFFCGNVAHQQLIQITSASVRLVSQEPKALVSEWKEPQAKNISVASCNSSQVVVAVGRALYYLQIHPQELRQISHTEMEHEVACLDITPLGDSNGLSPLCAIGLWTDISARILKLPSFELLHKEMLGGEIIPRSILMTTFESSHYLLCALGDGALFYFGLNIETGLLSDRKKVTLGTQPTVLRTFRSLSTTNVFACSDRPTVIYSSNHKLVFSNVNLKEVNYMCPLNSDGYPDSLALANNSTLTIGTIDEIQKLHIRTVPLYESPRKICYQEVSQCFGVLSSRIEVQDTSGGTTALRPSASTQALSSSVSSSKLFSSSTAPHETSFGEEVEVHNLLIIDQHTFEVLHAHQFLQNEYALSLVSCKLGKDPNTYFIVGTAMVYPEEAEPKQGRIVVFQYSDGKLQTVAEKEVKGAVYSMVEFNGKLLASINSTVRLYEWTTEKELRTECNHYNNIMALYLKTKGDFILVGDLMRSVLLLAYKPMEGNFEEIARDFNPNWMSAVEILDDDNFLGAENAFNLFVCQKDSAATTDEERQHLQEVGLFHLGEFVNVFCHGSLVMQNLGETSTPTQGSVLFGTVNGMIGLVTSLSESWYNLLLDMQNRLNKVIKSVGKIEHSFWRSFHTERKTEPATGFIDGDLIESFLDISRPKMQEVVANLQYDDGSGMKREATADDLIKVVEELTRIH
Outline: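 Delayed (70 μs) time-resolved read; FRET computed as 520 nm over 490 nm emission.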

HEK293T cells = assay: Drug sensitivity assay (CellTiter-Glo viability) with or without MLN4924 pretreatment; type: cell-based, human; settings: Supplementary Table 2; for EC50: Homo sapiens, HEK-293T, HEK293T viability, 72 h, compound alone, read-out: Cellular assays EC50; for Toxicity rescue: MLN4924-mediated cytotoxicity rescue, 10 µM used where n.d.
Outline: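 Viability of HEK293T–Cas9 cells was compared after 3-day drug treatment with or without 100 nM MLN4924 pretreatment (2 h, versus DMSO). Values are CellTiter-Glo signals relative to DMSO controls.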

[2] = Supplementary Table 2, HEK293T cycK-eGFP reporter, 5 h, read-out: Cellular assays DC50
[3] = compound concentration 79.2001 nM
[4] = compound concentration 158.4 nM
[5] = compound concentration 309.6 nM
[6] = compound concentration 626.401 nM
[7] = compound concentration 1252.8 nM
[8] = compound concentration 9936.01 nM
[9] = compound concentration 20016 nM
[10] = compound concentration 0.468 nM
[11] = compound concentration 7.92001 nM
[12] = compound concentration 15.84 nM
[13] = compound concentration 30.96 nM
[14] = compound concentration 62.6401 nM
[15] = compound concentration 125.28 nM
[16] = compound concentration 244.8 nM
[17] = compound concentration 993.601 nM
[18] = compound concentration 2001.6 nM
[19] = in vitro complex formation, 50 nM CDK12–cyclin K, 100 nM DDB1, text and figures, read-out: TR-FRET EC50

Row | DC50 [1, 2] | TR-FRET signal at compound concentration (CDK12–cyclin K and DDB1; [10]) | TR-FRET signal at compound concentration (CDK12–cyclin K and DDB1; compound concentration 2.16 nM) | TR-FRET signal at compound concentration (CDK12–cyclin K and DDB1; compound concentration 3.6 nM) | TR-FRET signal at compound concentration (CDK12–cyclin K and DDB1; [11]) | TR-FRET signal at compound concentration (CDK12–cyclin K and DDB1; [12]) | TR-FRET signal at compound concentration (CDK12–cyclin K and DDB1; [13]) | TR-FRET signal at compound concentration (CDK12–cyclin K and DDB1; [14]) | TR-FRET signal at compound concentration (CDK12–cyclin K and DDB1; [15]) | TR-FRET signal at compound concentration (CDK12–cyclin K and DDB1; [16]) | TR-FRET signal at compound concentration (CDK12–cyclin K and DDB1; [17]) | TR-FRET signal at compound concentration (CDK12–cyclin K and DDB1; [18]) | EC50 (CDK12–cyclin K and DDB1; [19]) | Structure (SMILES) | EC50 (HEK293T cells) | Toxicity rescue (HEK293T cells) | further results
1 | > 10000 nM | – | – | – | – | – | – | – | – | – | – | – | – | CC[C@H](CO)Nc1nc(NC)c2ncn(C(C)C)c2n1 [DS23] | > 10000 nM | 0% | TR-FRET signal, individual replicate (CDK12–cyclin K and DDB1; compound concentration 4.68 nM): 0.1301 and 0.1411; TR-FRET signal, individual replicate (CDK12–cyclin K and DDB1; compound concentration 21.6 nM): 0.1343 and 0.1464; TR-FRET signal, individual replicate (CDK12–cyclin K and DDB1; compound concentration 36 nM): 0.1332 and 0.1524; TR-FRET signal, individual replicate (CDK12–cyclin K and DDB1; [3]): 0.1391 and 0.1534; TR-FRET signal, individual replicate (CDK12–cyclin K and DDB1; [4]): 0.1406 and 0.1374; TR-FRET signal, individual replicate (CDK12–cyclin K and DDB1; [5]): 0.0615 and 0.162; TR-FRET signal, individual replicate (CDK12–cyclin K and DDB1; [6]): 0.1683 and 0.1829; TR-FRET signal, individual replicate (CDK12–cyclin K and DDB1; [7]): 0.1869 and 0.2017; TR-FRET signal, individual replicate (CDK12–cyclin K and DDB1; compound concentration 2448 nM): 0.194 and 0.2082; TR-FRET signal, individual replicate (CDK12–cyclin K and DDB1; [8]): 0.2263 and 0.2491; TR-FRET signal, individual replicate (CDK12–cyclin K and DDB1; [9]): 0.2226 and 0.3132; DDB1–CDK12 complex formation, result in words (CDK12–cyclin K and DDB1; in vitro TR-FRET): did not appreciably promote the binding
2 | 90 nM | 0.2617 and 0.2677 | 0.4243 and 0.428 | 0.7393 and 0.7415 | 1.2835 and 1.267 | 1.9468 and 1.95 | 2.593 and 2.662 | 3.101 and 3.186 | 3.361 and 3.544 | 3.469 and 3.727 | 3.278 and 3.742 | 3.339 and 3.592 | 15 ± 1 nM | CC[C@H](CO)Nc1nc(NCc2ccc(-c3ccc(C)s3)cc2)c2ncn(C(C)C)c2n1 [DS25] | 267 nM | 795% | EC50 (CDK12–cyclin K and DDB1; Supplementary Table 2, read-out: TR-FRET EC50 TR-FRET): 15 nM
3 | – | 0.1746 and 0.2408 | 0.2584 and 0.2684 | 0.3148 and 0.3094 | 0.4213 and 0.4118 | 0.6123 and 0.5731 | 1.004 and 0.9206 | 1.811 and 1.633 | 2.96 and 2.707 | 3.542 and 3.534 | 3.814 and 3.947 | 3.863 and 4.055 | 78 ± 2 nM | CC[C@H](CO)Nc1nc(NCc2ccc(-c3ccccn3)c(F)c2)c2ncn(C(C)C)c2n1 [DS24] | 794 nM | 270% | DC50 ([1]; source data sheet correlations, read-out: DC50): 172 nM; EC50 (CDK12–cyclin K and DDB1; sheet MOESM7, read-out: log TR-FRET EC50 (converted)): 78.2 nM; EC50 (CDK12–cyclin K and DDB1; source data sheet correlations, read-out: TR-FRET EC50): 78.2 nM
4 | > 10000 nM | – | – | – | – | – | – | – | – | – | – | – | 1230 ± 134 nM | CC[C@H](CO)Nc1nc(NCCc2ccccc2)c2ncn(C(C)C)c2n1 [DS31] | > 10000 nM | 0% | fold lower affinity than DS11 (CDK12–cyclin K and DDB1; TR-FRET complex formation): 12-22 fold; TR-FRET signal at compound concentration (CDK12–cyclin K and DDB1; compound concentration 4.68 nM): 0.211 and 0.2282; TR-FRET signal at compound concentration (CDK12–cyclin K and DDB1; compound concentration 21.6 nM): 0.2112 and 0.2225; TR-FRET signal at compound concentration (CDK12–cyclin K and DDB1; compound concentration 36 nM): 0.2194 and 0.2418; TR-FRET signal at compound concentration (CDK12–cyclin K and DDB1; [3]): 0.2283 and 0.2565; TR-FRET signal at compound concentration (CDK12–cyclin K and DDB1; [4]): 0.2533 and 0.2816; TR-FRET signal at compound concentration (CDK12–cyclin K and DDB1; [5]): 0.2963 and 0.3231; TR-FRET signal at compound concentration (CDK12–cyclin K and DDB1; [6]): 0.3477 and 0.3849; TR-FRET signal at compound concentration (CDK12–cyclin K and DDB1; [7]): 0.4331 and 0.4555; TR-FRET signal at compound concentration (CDK12–cyclin K and DDB1; compound concentration 2448 nM): 0.5457 and 0.5736; TR-FRET signal at compound concentration (CDK12–cyclin K and DDB1; [8]): 0.6887 and 0.7282; TR-FRET signal at compound concentration (CDK12–cyclin K and DDB1; [9]): 0.6557 and 0.645

Source: article PMC10746543, “Design principles for cyclin K molecular glue degraders” (Nature Chemical Biology, 2023)
